Measurements published in US8481584B2, “1H-thieno[2,3-c]pyrazole derivatives useful as kinase inhibitors” (Nerviano Medical Sciences S.R.L., priority 2004, dated 2013).

target: T1, Aurora-2 (Homo sapiens, UniProt O14965); assay: Inhibition assay of Aurora-2 activity (SPA technology); type: biochemical; conditions: screened according to the methods of the pharmacology section; read-out: IC50 values for Aurora-2 inhibition
T1 sequence (O14965 1-403): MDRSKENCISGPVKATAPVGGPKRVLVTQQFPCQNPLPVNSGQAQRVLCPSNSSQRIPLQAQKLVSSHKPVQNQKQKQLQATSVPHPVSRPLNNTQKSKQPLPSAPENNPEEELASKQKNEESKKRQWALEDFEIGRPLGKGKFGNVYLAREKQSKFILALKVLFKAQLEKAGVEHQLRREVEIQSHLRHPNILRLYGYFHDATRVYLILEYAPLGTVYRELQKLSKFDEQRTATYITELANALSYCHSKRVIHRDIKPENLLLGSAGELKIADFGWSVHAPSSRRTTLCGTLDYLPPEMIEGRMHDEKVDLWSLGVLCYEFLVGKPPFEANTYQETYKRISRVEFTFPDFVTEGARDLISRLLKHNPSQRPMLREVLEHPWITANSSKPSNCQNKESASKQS
Experimental: The inhibiting activity and the potency of selected compounds is determined through a method of assay based on the use of the SPA technology (Amersham Pharmacia Biotech).
The assay consists of the transfer of radioactivity labelled phosphate moiety by the kinase to a biotinylated substrate. The resulting 33P-labelled biotinylated product is allowed to bind to streptavidin-coated SPA beads (biotin capacity 130 pmol/mg), and light emitted was measured in a scintillation counter.
Inhibition Assay of Aurora-2 Activity
After 60 minutes at room temperature incubation, reaction was stopped and biotinylated peptide captured by adding 100 μl of bead suspension.
Stratification: 100 μl of CsCl2 5 M were added to each well and let stand 4 hour before radioactivity was counted in the Top-Count instrument.
Experimental data were analyzed by the computer program GraphPad Prizm using the four parameter logistic equation: y=bottom+(top−bottom)/(1+10^((logIC50−x)*slope)) where x is the logarithm of the inhibitor concentration, y is the response; y starts at bottom and goes to top with a sigmoid shape.

IC50 [nM] | SMILES
< 20 | CN1CCN(c2ccc(C(=O)Nc3n[nH]c4sc(C(=O)NC(C)(C)c5cccc(Cl)c5)cc34)cc2)CC1 [Compound 132, 3-[4-(4-Methyl-piperazin-1-yl)-benzoylamino]-1H-thieno[2,3-c]pyrazole-5-carboxylic acid[1-(3-chloro-phenyl)-1-methyl-ethyl]amide]
< 20 | CC(C)(NC(=O)c1cc2c(NC(=O)c3ccc(CN4CCCC4)cc3)n[nH]c2s1)c1ccc(F)cc1 [Compound 58, 3-(4-Pyrrolidin-1-ylmethyl-benzoylamino)-1H-thieno[2,3-c]pyrazole-5-carboxylic acid [1-(4-fluoro-phenyl)-1-methyl-ethyl]-amide]
< 20 | CN1CCN(c2ccc(C(=O)Nc3n[nH]c4sc(C(=O)NC(C)(C)c5cccc(F)c5)cc34)cc2)CC1 [Compound 142, 3-[4-(4-Methyl-piperazin-1-yl)-benzoylamino]-1H-thieno[2,3-c]pyrazole-5-carboxylic acid [1-(3-fluoro-phenyl)-1-methyl-ethyl]-amide]
< 20 | CC(C)(NC(=O)c1cc2c(NC(=O)c3cccs3)n[nH]c2s1)c1ccccc1F [Compound 123, 3-[(Thiophene-2-carbonyl)-amino]-1H-thieno[2,3-c]pyrazole-5-carboxylic acid [1-(2-fluoro-phenyl)-1-methyl-ethyl]-amide]
< 20 | CC(C)N(C)Cc1ccc(C(=O)Nc2n[nH]c3sc(C(=O)NC(C)(C)c4ccccc4)cc23)cc1 [Compound 64, 3-{4-[(Isopropyl-methyl-amino)-methyl]benzoylamino}-1H-thieno[2,3-c]pyrazole-5-carboxylic acid (1-methyl-1-phenyl-ethyl)-amide]

Second part, the molecule before the results:

SMILES | IC50 [nM]
CC(C)(NC(=O)c1cc2c(NC(=O)c3ccc(CN4CCOCC4)cc3)n[nH]c2s1)c1cccc(F)c1 [Compound 42, 3-(4-Morpholin-4-ylmethyl-benzoylamino)-1H-thieno[2,3-c]pyrazole-5-carboxylic acid [1-(3-fluoro-phenyl)-1-methyl-ethyl]-amide] | < 20
CC(C)(NC(=O)c1cc2c(NC(=O)c3ccc(CN4CCCCC4)cc3)n[nH]c2s1)c1ccccc1 [Compound 39, 3-(4-Piperidin-1-ylmethyl-benzoylamino)-1H-thieno[2,3-c]pyrazole-5-carboxylic acid(1-methyl-1-phenyl-ethyl)-amide] | < 20
CC(C)(NC(=O)c1cc2c(NC(=O)c3ccc(CN4CCNCC4)cc3)n[nH]c2s1)c1ccccc1 [Compound 47, 3-(4-piperazin-1-ylmethyl-benzoylamino)-1H-thieno[2,3-c]pyrazole-5-carboxylic acid (1-methyl-1-phenyl-ethyl)-amide] | < 20
Cn1cccc1C(=O)Nc1n[nH]c2sc(C(=O)NC(C)(C)c3ccccc3)cc12 [Compound 21, N-(1-methyl-1-phenylethyl)-3-{[(1-methyl-1H-pyrrol-2-yl)carbonyl]amino}-1H-thieno[2,3-c]pyrazole-5-carboxamide] | < 20
C[C@@H](NC(=O)c1cc2c(NC(=O)c3cccs3)n[nH]c2s1)c1ccc(F)cc1 [Compound 17, N-[(1R)-1-(4-fluorophenyl)ethyl]-3-[(thien-2-ylcarbonyl)amino]-1H-thieno[2,3-c]pyrazole-5-carboxamide] | < 20
O=C(Nc1n[nH]c2sc(C(=O)N[C@H](CN3CCOCC3)c3ccccc3)cc12)c1ccc(N2CCOCC2)cc1 [Compound 6, 3-[(4-morpholin-4-ylbenzoyl)amino]-N-[(1S)-2-morpholin-4-yl-1-phenylethyl]-1H-thieno[2,3-c]pyrazole-5-carboxamide] | < 20
CC[C@@H](NC(=O)c1cc2c(NC(=O)c3ccc(N4CCOCC4)cc3)n[nH]c2s1)c1ccccc1 [Compound 4, 3-[(4-morpholin-4-ylbenzoyl)amino]-N-[(1R)-1-phenylpropyl]-1H-thieno[2,3-c]pyrazole-5-carboxamide] | < 20
